Laboratory results: PubChem BioAssay AID248 (DTP/NCI, 2004)
Inconclusive results and toxic doses are left out. Cut-off read from the data, not from the text of the source: active = T/C of 150% or more; inactive = T/C below 125%.

System: L1210 leukemia ip in BDF1 mice, survival T/C
Assay: NCI In Vivo Anticancer Drug Screen. Data for tumor model L1210 Leukemia (intraperitoneal) in B6D2F1 (BDF1) mice
Conditions: endpoint: mean survival time, higher = longer survival
Method in brief: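 In this screen, tumor-bearing mice given compound are compared to those given vehicle, and their survival values are reported as a treated-to-control quotient.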

[1] = dose: 100.0 mg/kg/injection, schedule: Q01DX001 (ip), vehicle: carboxymethylcellulose (CMC)
[2] = dose: 200.0 mg/kg/injection, schedule: Q01DX001 (ip), vehicle: carboxymethylcellulose (CMC)
[3] = dose: 400.0 mg/kg/injection, schedule: Q01DX001 (ip), vehicle: carboxymethylcellulose (CMC)
[4] = dose: 100.0 mg/kg/injection, schedule: Q01DX009 (ip), vehicle: saline with Tween-80
[5] = dose: 100.0 mg/kg/injection, schedule: Q04DX003 (ip), vehicle: Klucel (hydroxypropylcellulose) (HPC)
[6] = dose: 200.0 mg/kg/injection, schedule: Q04DX003 (ip), vehicle: Klucel (hydroxypropylcellulose) (HPC)
[7] = dose: 400.0 mg/kg/injection, schedule: Q01DX009 (ip), vehicle: saline with Tween-80
[8] = dose: 400.0 mg/kg/injection, schedule: Q04DX003 (ip), vehicle: Klucel (hydroxypropylcellulose) (HPC)
[9] = dose: 100.0 mg/kg/injection, schedule: Q01DX001 (ip), vehicle: saline
[10] = dose: 200.0 mg/kg/injection, schedule: Q01DX001 (ip), vehicle: saline
[11] = dose: 400.0 mg/kg/injection, schedule: Q01DX001 (ip), vehicle: saline

Measured: T/C

CNc1c(Cl)cc(/C=C2\C=Cc3ccccc32)cc1Cl
inactive: [1] 101 % of control | [2] 101 % of control | [3] 95 % of control

O=C(Cc1ccccc1S(=O)(=O)Nc1ccccc1)c1ccccc1
inactive: dose: 100.0 mg/kg/injection, schedule: Q01DX001 (ip), vehicle: steriod suspending solution 96 % of control | dose: 200.0 mg/kg/injection, schedule: Q01DX001 (ip), vehicle: steriod suspending solution 86 % of control | dose: 400.0 mg/kg/injection, schedule: Q01DX001 (ip), vehicle: steriod suspending solution 91 % of control

COC1(OC)C2(Cl)CC(c3ccc(Cl)cc3)C1(Cl)C(Cl)=C2Cl (stereo not drawn)
inactive: [4] 110 % of control | [5] 98 % of control | dose: 200.0 mg/kg/injection, schedule: Q01DX009 (ip), vehicle: saline with Tween-80 101 % of control | [6] 105 % of control | [7] 100 % of control | [8] 104 % of control

COc1cc2c(cc1OC)C(C(C)C)NCC2O (stereo not drawn)
inactive: [9] 98 % of control | [10] 96 % of control

Cc1cn(C2C=CC(CO)O2)c(=O)[nH]c1=O (stereo not drawn)
inactive: [4] 89 % of control | [7] 90 % of control

BrCCN(CCBr)c1ccc2c3c(cccc13)-c1ccccc1-2
inactive: dose: 0.3 mg/kg/injection, schedule: Q01DX Z (ip), vehicle: other 117 % of control | dose: 0.7 mg/kg/injection, schedule: Q01DX Z (ip), vehicle: other 120 % of control | dose: 1.5 mg/kg/injection, schedule: Q01DX Z (ip), vehicle: other 123 % of control | dose: 6.25 mg/kg/injection, schedule: Q01DX009 (ip), vehicle: acetone 112 % of control | dose: 7.5 mg/kg/injection, schedule: Q01DX Z (ip), vehicle: other 101 % of control | dose: 11.0 mg/kg/injection, schedule: Q01DX Z (ip), vehicle: other 112 % of control | dose: 50.0 mg/kg/injection, schedule: Q01DX001 (ip), vehicle: carboxymethylcellulose (CMC) 124 % of control | [1] 114 % of control | dose: 100.0 mg/kg/injection, schedule: Q04DX003 (ip), vehicle: saline 120 % of control | [2] 124 % of control | [3] 120 % of control

O=C(O)c1cccc(SSc2cccc(C(=O)O)c2)c1
inactive: [1] 94 % of control | [2] 100 % of control | [3] 102 % of control

CCCCCCCCCCCCCCCCCCCOc1ccc(OCCCCCCCC)cc1
inactive: dose: 100.0 mg/kg/injection, schedule: Q04DX003 (ip), vehicle: saline with Tween-80 94 % of control | dose: 200.0 mg/kg/injection, schedule: Q04DX003 (ip), vehicle: saline with Tween-80 92 % of control | dose: 400.0 mg/kg/injection, schedule: Q04DX003 (ip), vehicle: saline with Tween-80 94 % of control

CCCC(C)OS(=O)(=O)c1ccc([N+](=O)[O-])cc1 (stereo not drawn)
inactive: dose: 100.0 mg/kg/injection, schedule: Q04DX002 (ip), vehicle: saline 101 % of control | dose: 200.0 mg/kg/injection, schedule: Q04DX002 (ip), vehicle: saline 90 % of control | dose: 400.0 mg/kg/injection, schedule: Q04DX002 (ip), vehicle: saline 92 % of control

O=C(O)C1CCCN1[N+](=O)[O-] (stereo not drawn)
inactive: [9] 100 % of control | [10] 104 % of control | [11] 110 % of control

COc1ccccc1N=Nc1c(O)n(-c2ccccc2)c(=S)n(-c2ccccc2)c1=O
inactive: dose: 100.0 mg/kg/injection, schedule: Q01DX001 (ip), vehicle: saline with Tween-80 106 % of control | dose: 200.0 mg/kg/injection, schedule: Q01DX001 (ip), vehicle: saline with Tween-80 95 % of control | dose: 400.0 mg/kg/injection, schedule: Q01DX001 (ip), vehicle: saline with Tween-80 94 % of control

COC(=O)c1ccccc1C(=O)OCC(C)(C)[N+](=O)[O-]
inactive: [5] 100 % of control | [6] 97 % of control | [8] 107 % of control

CCCCc1cn(C(C)=O)nn1
inactive: dose: 100.0 mg/kg/injection, schedule: Q04DX002 (ip), vehicle: saline with Tween-80 106 % of control | dose: 200.0 mg/kg/injection, schedule: Q04DX002 (ip), vehicle: saline with Tween-80 100 % of control

CCOC(=O)CNc1cc(Cl)cc(Cl)c1
inactive: dose: 100.0 mg/kg/injection, schedule: Q04DX002 (ip), vehicle: Klucel (hydroxypropylcellulose) (HPC) 100 % of control | dose: 200.0 mg/kg/injection, schedule: Q04DX002 (ip), vehicle: Klucel (hydroxypropylcellulose) (HPC) 96 % of control | dose: 400.0 mg/kg/injection, schedule: Q04DX002 (ip), vehicle: Klucel (hydroxypropylcellulose) (HPC) 96 % of control

O=C1c2nc3ccccc3nc2C(=O)N1O
inactive: dose: 100.0 mg/kg/injection, schedule: Q01DX009 (ip), vehicle: Klucel (hydroxypropylcellulose) (HPC) 107 % of control | dose: 200.0 mg/kg/injection, schedule: Q01DX009 (ip), vehicle: Klucel (hydroxypropylcellulose) (HPC) 100 % of control

O=C(N/N=C/c1cc([N+](=O)[O-])ccc1O)c1cccc2ccccc12
inactive: [9] 90 % of control | [10] 90 % of control | [11] 92 % of control

Nc1ccc(Nc2ccc([N+](=O)[O-])cc2)cc1
inactive: dose: 75.0 mg/kg/injection, schedule: Q01DX009 (ip), vehicle: Klucel (hydroxypropylcellulose) (HPC) 91 % of control | dose: 150.0 mg/kg/injection, schedule: Q01DX009 (ip), vehicle: Klucel (hydroxypropylcellulose) (HPC) 105 % of control | dose: 300.0 mg/kg/injection, schedule: Q01DX009 (ip), vehicle: Klucel (hydroxypropylcellulose) (HPC) 100 % of control

CCc1ccc(/C=C/c2ccc[nH]2)[n+](C)c1
inactive: dose: 5.0 mg/kg/injection, schedule: Q01DX001 (ip), vehicle: carboxymethylcellulose (CMC) 94 % of control | dose: 10.0 mg/kg/injection, schedule: Q01DX001 (ip), vehicle: carboxymethylcellulose (CMC) 94 % of control | dose: 20.0 mg/kg/injection, schedule: Q01DX001 (ip), vehicle: carboxymethylcellulose (CMC) 89 % of control | dose: 40.0 mg/kg/injection, schedule: Q01DX001 (ip), vehicle: carboxymethylcellulose (CMC) 96 % of control | dose: 80.0 mg/kg/injection, schedule: Q01DX001 (ip), vehicle: carboxymethylcellulose (CMC) 91 % of control
